Source: US20140271734A1, “BILE ACID RECYCLING INHIBITORS FOR TREATMENT OF BARRETT'S ESOPHAGUS AND GASTROESOPHAGEAL REFLUX DISEASE” (LUMENA PHARMACEUTICALS, INC., priority 2013, published 2014)

What was measured:
[1] = tested on: fecal bile acid (FBA); experiment: Fecal bile acids in hamsters, LUM001 for 28 days; assay type: in vivo, golden Syrian hamsters; settings: for Weight-Adjusted Fecal Total Bile Acids Excretion: n=10
Experimental: Male golden Syrian hamsters (126-147 gm) were obtained from Charles Rivers Laboratories and were single housed in a constant temperature environment with alternating 12-hour light and dark cycles. Hamsters were fed Teklad 7001 rodent meal chow at libitum for two weeks before the experimental studies began and switched to Teklad 7001 rodent meal chow supplemented with 0.24% cholesterol on day one of the 28-day experiment. LUM001 was dissolved in an aqueous solution of 0.2% (w/v) Tween 80 and administered Q.D. by intragastric gavage between 9 a.m. and 10 a.m. each morning using a syringe fitted with a flexible feeding tube. Blood samples were collected after 14- and 28-day treatment periods by orbital sinus and cardiac puncture, respectively. Hamsters were anesthetized but not fasted prior to blood collections. Fecal samples were collected during a 48-hour period at the end of days 14 and 28 (i.e., days 13-14 and 27-28, respectively).
Fecal samples were collected to determine the fecal bile acid (FBA) concentration for each animal. The separate collections from each hamster were weighed and homogenized with distilled water with a Polytron tissue processor (Brinkman Instruments) to generate a homogeneous slurry. Fecal homogenate (1.4 grams) was extracted with 2.6 mL of a solution containing tertiary butanol:distilled water in the ratio of 2:0.6 [final concentration of 50% (v/v) tertiary butanol] for 45 minutes in a 37° C. water bath and subjected to centrifugation for 13 minutes at 2000×g. The concentration of bile acids (mmolesgram homogenate) was determined using a 96-well enzymatic assay system (6, 7). Aliquots of the fecal extracts (20 μl) were added to two sets of triplicate wells in a 96-well assay plate. A standardized sodium taurocholate solution and a standardized fecal extract solution (previously made from pooled samples and characterized for its bile acid concentration) were also analyzed for assay quality control. Aliquots of 90 mM sodium taurocholate ([…]), were serially diluted to generate a standard curve containing 30-540 nmoles/well. A […] aliquot of reaction mixture containing 1M hydrazine hydrate, 0.1 M pyrophosphate and 0.46 mg/ml NAD was added to each well. Subsequently, a […] aliquot of either 3a-hydroxysteroid dehydrogenase enzyme (HSD; 0.8 units/ml) or assay buffer (0.1 M sodium pyrophosphate) was then added to one each of the two sets of triplicates. Following 60 minutes of incubation at room temperature, the optical density at 340 nm was measured and the mean of each set of triplicate samples was calculated. The difference in optical density±HSD enzyme was used to determine the bile acid concentration (mM) of each sample based on the sodium taurocholate standard curve. The bile acid concentration of the extract (mmolesgram homogenate), the total weight of the fecal homogenate (grams) and the body weight of the hamsters (g) were used to calculate the corresponding FBA concentration in mmoles/day/kg body weight for each animal. All reagents used for the assay were obtained from Sigma Chemical Co., St. Louis, Mo. (HSD—catalog # H-1506; NAD—catalog # N1636; sodium taurocholate—catalog # T-4009).

[2] = tested on: serum total bile acid (SBA); settings: previous experiments; cited from earlier work
[3] = tested on: plasma amylase; experiment: Plasma amylase in ZDF rats, week 3; assay type: in vivo; settings: twice daily oral gavage
[4] = Pharmacokinetics of LUM002 100 mg single oral dose in humans; assay type: in vivo, human
Experimental: Healthy male subjects, from 18 to 45 years of age, were given a single oral solution dose (100 mg in 100 mL) of LUM002 under fasting conditions. Blood samples for the determination of LUM002 plasma concentration were collected predose and 0.5, 1, 2, 3, 4, 5, 6, 8, 10, 12, 16, 24, and 48 hours after treatment administration. Plasma was obtained by centrifugation and […] processed for protein precipitation, centrifuged again to remove the precipitate and the supernatant prepared for LC-MSMS analysis. LUM002 plasma concentrations were determined using a validated liquid chromatography tandem mass spectrometry (LC-MSMS) assay with a lower limit of quantification (LLOQ) of 0.1 ng/mL. LUM002 plasma concentrations were used to determine the following pharmacokinetic parameters using standard noncompartmental techniques: Cmax, Tmax, AUClast, and, if applicable due to the low-absorbable characteristics of LUM002, also AUC, AUC0-24 and t1/2.

[5] = tested on: Hemoglobin A1c (HbA1c); experiment: Baseline-corrected percent HbA1c in ZDF rats; assay type: in vivo; settings: twice daily oral gavage
[6] = 100 mg single oral dose, Geometric Mean, N=6
[7] = 100 mg single oral dose, Median, N=6
[8] = 100 mg single oral dose, Subject 250001149
[9] = 100 mg single oral dose, Subject 250001150
[10] = 100 mg single oral dose, Subject 250001151
[11] = 100 mg single oral dose, Subject 250001154
[12] = 100 mg single oral dose, Subject 250001155
[13] = 100 mg single oral dose, Subject 750001156
[14] = 100 mg single oral dose, mean, N=6

CCCCC1(CCCC)CS(=O)(=O)c2ccc(N(C)C)cc2[C@@H](c2ccc(OCc3ccc(C[N+]45CCN(CC4)CC5)cc3)cc2)[C@H]1O [LUM001]
Weight-Adjusted Fecal Total Bile Acids Excretion, % change from vehicle group ([1]; 5 mg/kg/day): (+233) % | Weight-Adjusted Fecal Total Bile Acids Excretion ([1]; 5 mg/kg/day): 60 µmol/day/kg | Weight-Adjusted Fecal Total Bile Acids Excretion, % change from vehicle group ([1]; 15 mg/kg/day): (+267) % | Weight-Adjusted Fecal Total Bile Acids Excretion ([1]; 15 mg/kg/day): 66 µmol/day/kg | Weight-Adjusted Fecal Total Bile Acids Excretion, % change from vehicle group ([1]; 50 mg/kg/day): (+422) % | Weight-Adjusted Fecal Total Bile Acids Excretion ([1]; 50 mg/kg/day): 94 µmol/day/kg | Time LUM001 remains active [2]: more than 4.5 hours

CCCC[C@]1(CC)CS(=O)(=O)c2ccc(N(C)C)cc2[C@@H](c2cccc(NC(=O)N[C@@H]3O[C@H](COS(=O)(=O)[O-])[C@@H](O)[C@H](OCc4ccccc4)[C@H]3O)c2)[C@H]1O.CCO.O.[K+] [LUM002, potassium((2R,3R,4S,5R,6R)-4-benzyloxy-6-{3-[3-((3S,4R,5R)-3-butyl-7-dimethylamino-3-ethyl-4-hydroxy-1,1-dioxo-2,3,4,5-tetrahydro-1H-benzo[b]thiepin-5-yl)-phenyl]-ureido}-3,5-dihydroxy-tetrahydro-pyran-2-ylmethyl)sulphate ethanolate, hydrate]
Plasma amylase [3]: Neither LUM002 nor SC-435 caused a statistically significant changes | AUClast [4, 6]: 0.187 ng·h/mL | Cmax [4, 6]: 0.197 ng/mL | Tmax [4, 6]: 3.22 h | tlast [4, 6]: 4.93 h | AUClast [4, 7]: 0.148 ng·h/mL | Cmax [4, 7]: 0.216 ng/mL | Tmax [4, 7]: 5.00 h | tlag [4, 7]: 1.00 h | tlast [4, 7]: 5.00 h | AUC0-24 [4, 8]: 1.92 ng·h/mL | AUCExt [4, 8]: 39% | AUClast [4, 8]: 1.19 ng·h/mL | Cmax [4, 8]: 0.300 ng/mL | Tmax [4, 8]: 5.00 h | t1/2z [4, 8]: 3.39 h | tlag [4, 8]: 0.00 h | tlast [4, 8]: 8.00 h | AUClast [4, 9]: 0.0815 ng·h/mL | Cmax [4, 9]: 0.163 ng/mL | Tmax [4, 9]: 5.00 h | tlag [4, 9]: 4.00 h | tlast [4, 9]: 5.00 h | AUClast [4, 10]: 0.0645 ng·h/mL | Cmax [4, 10]: 0.129 ng/mL | Tmax [4, 10]: 3.00 h | tlag [4, 10]: 2.00 h | tlast [4, 10]: 3.00 h | AUClast [4, 11]: 0.215 ng·h/mL | Cmax [4, 11]: 0.269 ng/mL | Tmax [4, 11]: 6.00 h | tlag [4, 11]: 0.00 h | tlast [4, 11]: 6.00 h | AUClast [4, 12]: 0.522 ng·h/mL | Cmax [4, 12]: 0.286 ng/mL | Tmax [4, 12]: 0.50 h | tlag [4, 12]: 0.00 h | tlast [4, 12]: 4.00 h | AUClast [4, 13]: 0.0600 ng·h/mL | Cmax [4, 13]: 0.120 ng/mL | Tmax [4, 13]: 5.00 h | tlag [4, 13]: 4.00 h | tlast [4, 13]: 5.00 h | AUClast [4, 14]: 0.355 ng·h/mL | Cmax [4, 14]: 0.211 ng/mL | Tmax [4, 14]: 4.08 h | tlag [4, 14]: 1.67 h | tlast [4, 14]: 5.17 h | LUM002 dose systemically absorbed ([4]; healthy male subjects, single oral solution 100 mg, fasting): Less than 1% | Baseline-corrected percent HbA1c [5]: significant dose-dependent reductions
